How the values were obtained:
Botrytis cinerea = Botrytis cinerea Test (Roses)/Preventive (field trial); conditions: young rose plants in the field, sprayed twice five days apart, leaves and stems evaluated fifteen days after second application; B9 (RHAPSODY) 2 mL/L, F196 (SCALA) 1.25 mL/L, combination 2 mL/L + 1.25 mL/L
Protocol: The application rate of Bacillus subtilis AQ713 refers to the amount of (1.34%) Bacillus subtilis AQ713 (NRRL Accession No. B-21661) (i.e., spore preparation) contained in a formulation of AQ713.
The rose plants were grown in the field under conditions where disease pressure from Botrytis cinerea was present. Each treatment was applied twice to the plants at intervals five days apart. The efficacy of the treatments in preventing Botrytis infection on the leaves and stems of the plants was evaluated fifteen days after the second application.

Alternaria solani = assay: Alternaria Test (Tomatoes)/Preventive; assay type: in vivo; conditions: young tomato plants sprayed preventively, evaluated 3 days after inoculation; application rate B19 500 ppm, F206 100 ppm, B19 + F206 500 + 100 ppm (1:0.2); 0% = untreated control, 100% = no disease
Text: A solution comprising 8.5×10^8 CFU/g (1.34%) of this strain was used.

SMILES	Efficacy in % Found (activity observed) (Botrytis cinerea) [%]	Efficacy in % Found (activity observed) (Alternaria solani) [%]
Cc1cc(C)nc(Nc2ccccc2)n1 [F196 pyrimethanil, pyrimethanil]	40	
C#CCOc1ccc(CCNC(=O)C(OCC#C)c2ccc(Cl)cc2)cc1OC (centres unmarked) [F206 mandipropamid, mandipropamid]		0
